Assay results taken from ChEMBL document CHEMBL1134207, “Synthesis and antiviral activity of novel D- and L-2'-azido-2',3'-dideoxyribofuranosyl-4'-thiopyrimidines and purines” (Bioorg Med Chem Lett, 2001).
Converted amounts (≈) assume the structure as drawn. The source made the active and inactive calls. No cut-off for these calls is given here.

How the values were obtained:
Format in all cases: functional, organism-based
Human alphaherpesvirus 2 = assay: Tested for antiviral activity against HSV-2 in CCL 81 cells
Human alphaherpesvirus 1 = assay: Tested for antiviral activity against HSV-1 in CCL 81 cells
Human betaherpesvirus 5 [1] = assay: Tested for antiviral activity against HCMV in […] cells
[2] = test system: Human immunodeficiency virus 1; assay: Tested for antiviral activity against HIV-1 in MT-4 cells; settings: MT4
Human betaherpesvirus 5 [3] = assay: Tested for antiviral activity against HCMV in AD169 cell line; settings: Human betaherpesvirus 5, AD169
Human betaherpesvirus 5 [4] = assay: Tested for antiviral activity against HCMV in Davis cell line; settings: Human betaherpesvirus 5, Davis

Compound | Activity (Human alphaherpesvirus 2) | Activity (Human alphaherpesvirus 1) | Activity (Human betaherpesvirus 5 [1]) | Activity [2] | EC50 (Human betaherpesvirus 5 [3]) | EC50 (Human betaherpesvirus 5 [4])
[N-]=[N+]=N[C@H]1C[C@H](CO)S[C@@H]1n1cnc2c(N)ncnc21 | inactive | inactive | Significant activity | inactive | – | –
[N-]=[N+]=N[C@H]1C[C@H](CO)S[C@H]1n1cnc2c(Cl)ncnc21 | inactive | inactive | Significant activity | inactive | – | –
CNc1ncnc2c1ncn2[C@H]1S[C@H](CO)C[C@H]1N=[N+]=[N-] | – | – | – | – | 19.1 µg/mL (≈ 62.5 µM) | 25.8 µg/mL (≈ 84.2 µM)
CNc1ncnc2c1ncn2[C@@H]1S[C@@H](CO)C[C@@H]1N=[N+]=[N-] | inactive | inactive | Significant activity | inactive | – | –
CNc1ncnc2c1ncn2[C@@H]1S[C@H](CO)C[C@H]1N=[N+]=[N-] | – | – | – | – | 26.1 µg/mL (≈ 85.2 µM) | 90.2 µg/mL (≈ 294 µM)
[N-]=[N+]=N[C@H]1C[C@H](COC(=O)c2ccccc2)S[C@H]1n1ccc(=O)n(C(=O)c2ccccc2)c1=O | inactive | inactive | Significant activity | inactive | – | –
CC(C)(C)[Si](OC[C@H]1C[C@H](N=[N+]=[N-])[C@@H](n2ccc(NC(=O)c3ccccc3)nc2=O)S1)(c1ccccc1)c1ccccc1 | inactive | inactive | Significant activity | inactive | – | –
[N-]=[N+]=N[C@H]1C[C@H](CO)S[C@@H]1n1ccc(=O)[nH]c1=O | inactive | inactive | Significant activity | inactive | – | –
CC(C)(C)[Si](OC[C@H]1C[C@H](N=[N+]=[N-])[C@H](n2ccc(NC(=O)c3ccccc3)nc2=O)S1)(c1ccccc1)c1ccccc1 | inactive | inactive | Significant activity | inactive | – | –
Cc1cn([C@@H]2S[C@@H](CO)C[C@@H]2N=[N+]=[N-])c(=O)[nH]c1=O | inactive | inactive | Significant activity | inactive | – | –
[N-]=[N+]=N[C@H]1C[C@H](CO)S[C@@H]1n1cnc2c(Cl)ncnc21 | inactive | inactive | Significant activity | inactive | – | –
CC(=O)OC1S[C@@H](CO[Si](c2ccccc2)(c2ccccc2)C(C)(C)C)C[C@@H]1N=[N+]=[N-] (stereo partly drawn) | inactive | inactive | inactive | inactive | – | –
Cc1cn([C@H]2S[C@@H](CO)C[C@@H]2N=[N+]=[N-])c(=O)[nH]c1=O | inactive | inactive | Significant activity | inactive | – | –
[N-]=[N+]=N[C@@H]1C[C@@H](CO)S[C@@H]1n1cnc2c(N)ncnc21 | inactive | inactive | Significant activity | inactive | – | –
Nc1nc2c(ncn2COC(CO)CO)c(=O)[nH]1 [GANCICLOVIR] | – | – | – | – | 0.98 µg/mL (≈ 3.84 µM) | 4.07 µg/mL (≈ 15.9 µM)
CNc1ncnc2c1ncn2[C@H]1S[C@@H](CO)C[C@@H]1N=[N+]=[N-] | inactive | inactive | Significant activity | inactive | – | –
[N-]=[N+]=N[C@@H]1C[C@@H](CO)S[C@H]1n1cnc2c(N)ncnc21 | inactive | inactive | Significant activity | inactive | – | –
[N-]=[N+]=N[C@H]1C[C@H](COC(=O)c2ccccc2)S[C@@H]1n1ccc(=O)n(C(=O)c2ccccc2)c1=O | inactive | inactive | Significant activity | inactive | – | –
[N-]=[N+]=N[C@H]1C[C@H](CO)S[C@H]1n1cnc2c(N)ncnc21 | inactive | inactive | Significant activity | inactive | – | –
[N-]=[N+]=N[C@H]1C[C@H](CO)S[C@H]1n1ccc(=O)[nH]c1=O | inactive | inactive | Significant activity | inactive | – | –
[N-]=[N+]=N[C@H]1C[C@H](CO)S[C@@H]1n1ccc(N)nc1=O | inactive | inactive | Significant activity | inactive | – | –
[N-]=[N+]=N[C@H]1C[C@H](CO)S[C@@H]1n1cnc2c(O)ncnc21 | inactive | inactive | Significant activity | inactive | – | –
[N-]=[N+]=N[C@@H]1C[C@@H](CO)S[C@@H]1n1cnc2c(Cl)ncnc21 | inactive | inactive | Significant activity | inactive | – | –
[N-]=[N+]=N[C@@H]1C[C@@H](CO)S[C@H]1n1cnc2c(Cl)ncnc21 | inactive | inactive | Significant activity | inactive | – | –
[N-]=[N+]=N[C@H]1C[C@H](CO)S[C@H]1n1ccc(N)nc1=O | inactive | inactive | Significant activity | inactive | – | –
[N-]=[N+]=N[C@H]1C[C@H](CO)S[C@H]1n1cnc2c(O)ncnc21 | inactive | inactive | Significant activity | inactive | – | –
